Key:
[1] = test system: wild-type soybean line A3237; test: Experiment I greenhouse test, seed imbibition, wild-type soybean; details: 0.25 mg/ml; seeds imbibed 5 hours
[2] = test system: constitutively GA-deficient transgenic dwarf soybean line 719; test: Experiment II second greenhouse test, seed imbibition, GA-deficient soybean; assay type: in vivo, Glycine max; details: seeds imbibed 6 hours
Outline: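 Twenty seeds per treatment were imbibed 6 hours in test solutions, with dry, 1% ethanol and water-imbibed controls. Seeds were then planted and grown three weeks in the greenhouse with sub-irrigation, under 16 h light/8 h dark at 300-400 μmol m^−2 s^−1. Scoring covered dwarf, intermediate and tall plant counts, plant height, uniformity of rescue and visual effects.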

[3] = test system: wild-type soybean line A3237; test: Experiment II second greenhouse test, seed imbibition, wild-type soybean; assay type: in vivo, Glycine max; details: seeds imbibed 6 hours
Method: (The compounds are tested in Experiment I at only one concentration, i.e., 0.25 mg/ml). Test tubes contained […] of ethanol solution per tube. Final volumes are made up to 30 ml with deionized water. After shaking, the treatment solutions (15 ml each) are transferred to each of two 50 ml test tubes. […] Twenty seeds are used in each treatment. Dry seed, ethanol/water-imbibed seed (1% ethanol in water, v/v), and water-imbibed seeds are included as controls. Seeds are imbibed for 6 hours in the test solutions, then planted in bread pans containing Metromix 350 (The Scotts Company, Marysville, Ohio), and covered with 0.5″ Metro-mix. Covered pans are transferred to the greenhouse and subirrigated. Illumination is at a light intensity of 300-400 μmolm^−2s^−1 photosynthetic photon flux; 16 hours light/8 hours dark. Subsequent waterings are also through sub-irrigation until the test is terminated three weeks later. Observations included the number of dwarf, intermediate, and tall plants; plant height; uniformity of rescue; and any visual effects. Digital photographs are also taken.

[4] = test system: transgenic line 719 soybean; test: Field trial of seed coatings under soil compaction / different soils, GA-deficient soybean; assay type: in vivo, Glycine max; details: for Count (emergence) / Dwarfs (number of dwarfs not rescued) / Dwarfs (number not rescued): Line 719; for rank of potential for rescuing GA-deficient dwarf soybeans without decreasing emergence: based on the last two field trials; for best to least selectivity order: emergence under soil compaction, margin of selectivity, rescue without overelongation
[5] = test system: GA-deficient transgenic soybean line 719 (R5); test: Hilum treatment of soybean seeds, seedling growth and development, GA-deficient soybean; assay type: in vivo, Glycine max; design: key to Emergence timing / Hypocotyl length (6 DAP) / 1st internode length (12 DAP) / 3rd internode length (20 DAP) / 2nd internode length (12 DAP): pos: emergence faster/stem segment longer than controls; 0: emergence timing/stem segment length similar to controls; neg: emergence slower/stem segment shorter than controls; details: for 1st internode length (12 DAP) / Emergence timing / Hypocotyl length (6 DAP): single rate per compound 8.3-16.5 μg/seed; for 2nd internode length (12 DAP) / 3rd internode length (20 DAP): single rate per compound 9.7-16.5 μg/seed
Outline: (§1)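 GA compounds dissolved in ethanol were applied as 1 μl droplets, each dried before the next, to the hilum of GA-deficient transgenic line 719 (R5) or wild-type soybean seeds; ethanol alone served as control. Emergence was scored over time as cotyledons at or above soil level, with growth measured after prolonged development.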

wild-type A3237 soybean = test: Hilum treatment of soybean seeds, seedling growth and development, wild-type soybean; assay type: in vivo, Glycine max; design: key to Emergence timing / Hypocotyl length (6 DAP) / 1st internode length (12 DAP) / 3rd internode length (20 DAP): pos: emergence faster/stem segment longer than controls; 0: emergence timing/stem segment length similar to controls; neg: emergence slower/stem segment shorter than controls; details: for 1st internode length (12 DAP) / Emergence timing / Hypocotyl length (6 DAP): single rate per compound 8.3-16.5 μg/seed
Outline: as §1

[6] = test system: AX5/antisense CPScc soybean line 234 (R3); test: Hilum seed treatment of epicotyl-intensive GA-deficient soybean, height (FIG. 43); assay type: in vivo, Glycine max; details: 10 DAP; for restoration of height of line 234 soybeans: hypocotyl and epicotyl elongation, hypocotyl to epicotyl ratio not maintained
Method: The purpose of this study is to evaluate the ability of four GA compounds, i.e., GA9, GA5, GA3-3-acetate, and GA12, to restore normal growth in AX5/antisense CPScc soybean lines when applied as a seed treatment.
Line 46 plants are R2; Line 234 plants are R3.
The GA compounds are dissolved in ethanol and applied to the hilum of dry seeds as not more than 10 μl droplets with a syringe. If multiple applications are made to seeds, the previous application is allowed to dry before a subsequent application is made.
Seeds are sown 1 inch deep in commercial potting soil (Metromix 200) in 4-inch plastic pots and placed in a greenhouse set for 12 hours artificial light and a temperature regime of 85° F. (29° C.) day and 75° F. night (24° C.). Pots are watered as necessary by overhead hand watering. Hypocotyl and epicotyl measurements are made for each plant at various stages of plant growth.
The lower dashed horizontal line represents the total height of untreated AX5 line 234 soybeans. The upper dashed horizontal line represents the total height of untreated wild-type A4922 soybeans. Measurements are made 10 days after planting.

[7] = Heavy soil - Loose, target rate 0.5 μg/seed, Table 23
[8] = Heavy soil - Loose, target rate 2.0 μg/seed, Table 23
[9] = Heavy soil - Loose, target rate 4.0 μg/seed, Table 23
[10] = Heavy soil - compacted, target rate 0.5 μg/seed, Table 23
[11] = Heavy soil - compacted, target rate 2.0 μg/seed, Table 23
[12] = Heavy soil - compacted, target rate 4.0 μg/seed, Table 23
[13] = Heavy soil - loose, target rate 0.5 μg/seed, Table 22
[14] = Heavy soil - loose, target rate 2.0 μg/seed, Table 22
[15] = Light soil - Compacted, target rate 0.5 μg/seed, Table 22
[16] = Light soil - Compacted, target rate 2.0 μg/seed, Table 22
[17] = Light soil - Loose, target rate 0.5 μg/seed, Table 24
[18] = Light soil - Loose, target rate 2.0 μg/seed, Table 24
[19] = Light soil - Loose, target rate 4.0 μg/seed, Table 24
[20] = Light soil - compacted, target rate 0.5 μg/seed, Table 24
[21] = Light soil - compacted, target rate 2.0 μg/seed, Table 24
[22] = Light soil - compacted, target rate 4.0 μg/seed, Table 24
[23] = L719, hilum treatment, rate response
[24] = Heavy soil - loose, target rate 8.0 μg/seed, Table 22
[25] = Light soil - Compacted, target rate 8.0 μg/seed, Table 22
[26] = Light soil - Loose, target rate 8.0 μg/seed, Table 24
[27] = Light soil - Loose, target rate 16.0 μg/seed, Table 24
[28] = Light soil - compacted, target rate 8.0 μg/seed, Table 24
[29] = Light soil - compacted, target rate 16.0 μg/seed, Table 24

C=C1C[C@]23C[C@@]1(O)CC[C@H]2[C@@]12CC=C[C@@](C)(C(=O)O1)[C@H]2[C@@H]3C(=O)O [GA5]
Observation on Wild-Type Line A3237 [1]: 4 | Significant Visual Observations on Line 719 ([2]; 0.0025 mg/ml): Good rescue of dwarfs | Significant Visual Observations on Line 719 ([2]; 0.025 mg/ml): good rescue, with no overelongation | Significant Visual Observations on Line 719 ([2]; 0.25 mg/ml): Excessive elongation | Significant Visual Observations on Line A3237 ([3]; 0.025 mg/ml): Normal height | Count (emergence) [4, 7]: 31.7 bcd | Dwarfs (number of dwarfs not rescued) [4, 7]: 2.0 cde | Count (emergence) [4, 8]: 32.3 bcd | Dwarfs (number of dwarfs not rescued) [4, 8]: 0.7 cde | Count (emergence) [4, 9]: 30.3 bcd | Dwarfs (number of dwarfs not rescued) [4, 9]: 0 e | Count (emergence) [4, 10]: 18.3 ab | Dwarfs (number of dwarfs not rescued) [4, 10]: 0 days | Count (emergence) [4, 11]: 9.0 g·days | Dwarfs (number of dwarfs not rescued) [4, 11]: 0 days | Count (emergence) [4, 12]: 7.0 efg | Dwarfs (number of dwarfs not rescued) [4, 12]: 0 days | Count (emergence) [4, 13]: 32 bcd | Dwarfs (number of dwarfs not rescued) [4, 13]: 2.0 cde | Count (emergence) [4, 14]: 32 bcd | Dwarfs (number of dwarfs not rescued) [4, 14]: 0.7 cde | Count (emergence) [4, 15]: 39 abc | Dwarfs (number of dwarfs not rescued) [4, 15]: 0 days | Count (emergence) [4, 16]: 30 a-f | Dwarfs (number of dwarfs not rescued) [4, 16]: 0 days | Count (emergence) [4, 17]: 46.3 a | Dwarfs (number not rescued) [4, 17]: 1.0 e | Count (emergence) [4, 18]: 43.3 ab | Dwarfs (number not rescued) [4, 18]: 0 e | Count (emergence) [4, 19]: 45.0 ab | Dwarfs (number not rescued) [4, 19]: 0 e | Count (emergence) [4, 20]: 39.0 abc | Dwarfs (number not rescued) [4, 20]: 0 | Count (emergence) [4, 21]: 30.3 a-f | Dwarfs (number not rescued) [4, 21]: 0 | Count (emergence) [4, 22]: 32.7 a-e | Dwarfs (number not rescued) [4, 22]: 0 | rank of potential for rescuing GA-deficient dwarf soybeans without decreasing emergence [4]: GA9>GA5>GA3-3-acetate>GA3>GA12 | best to least selectivity order ([4]; Table 22): GA9>GA5>GA3-3-acetate>GA3 | Lowest rate where biological activity is observed, 1st internode length (10 DAP) [5, 23]: 1 μg/seed | Lowest rate where biological activity is observed, 3rd internode length (20 DAP) [5, 23]: >1 μg/seed | Lowest rate where biological activity is observed, emergence timing [5, 23]: 1 μg/seed | Lowest rate where biological activity is observed, hypocotyl length (5 DAP) [5, 23]: 0.1 μg/seed | 1st internode length (12 DAP) ([5]; L719, hilum treatment): pos | Emergence timing ([5]; L719, hilum treatment): pos | Hypocotyl length (6 DAP) ([5]; L719, hilum treatment): pos | 2nd internode length (12 DAP) ([5]; L719, hilum treatment): pos | 3rd internode length (20 DAP) ([5]; L719, hilum treatment): pos | rate giving increased internode elongation at internode number 3 ([5]; hilum): greater than or equal to 1 μg/seed | biological activity on the first internode of line 719 compared to GA3 and GA9 ([5]; hilum, rate response): approximately 10 times more | stem elongation past the first internode ([5]; initial seed dose approximately 10 μg/seed, hilum): measurable increases in internode length up to the third internode | 3rd internode length (20 DAP) (wild-type A3237 soybean; rate 9.7 μg/seed): pos | Lowest rate where biological activity is observed, 1st internode length (10 DAP) (wild-type A3237 soybean; rate response): 1 μg/seed | Lowest rate where biological activity is observed, 3rd internode length (20 DAP) (wild-type A3237 soybean; rate response): 1 μg/seed | Lowest rate where biological activity is observed, emergence timing (wild-type A3237 soybean; rate response): 0.1 μg/seed | Lowest rate where biological activity is observed, hypocotyl length (5 DAP) (wild-type A3237 soybean; rate response): 1 μg/seed | 1st internode length (12 DAP) (wild-type A3237 soybean): pos | Emergence timing (wild-type A3237 soybean): pos | Hypocotyl length (6 DAP) (wild-type A3237 soybean): pos | restoration of height of line 234 soybeans [6]: restore normal height to line 234 soybeans | response of line 234 height ([6]; seed treatment rates between 0.1 and 1 μg/seed): generally similar response

C=C1C[C@]23C[C@H]1CC[C@H]2[C@@]12CCC[C@@](C)(C(=O)O1)[C@H]2[C@@H]3C(=O)O [GA9]
Observation on Wild-Type Line A3237 [1]: 3 | Significant Visual Observations on Line 719 ([2]; 0.00125 mg/ml): Poor rescue | Significant Visual Observations on Line 719 ([2]; 0.0125 mg/ml): Good rescue of dwarfs | Significant Visual Observations on Line 719 ([2]; 0.125 mg/ml): good rescue, with no overelongation | Significant Visual Observations on Line A3237 ([3]; 0.125 mg/ml): Normal height | % Emergence, Heavy Soil-Loose ([4]; 3.1 μg/seed): 103% | % Emergence, Light Soil-Compact ([4]; 3.1 μg/seed): 103% | % Rescue, Heavy Soil-Loose ([4]; 3.1 μg/seed): 80% | % Rescue, Light Soil-Compact ([4]; 3.1 μg/seed): 91% | % Emergence, Heavy Soil-Loose ([4]; 4.9 μg/seed): 91% | % Emergence, Light Soil-Compact ([4]; 4.9 μg/seed): 73% | % Rescue, Heavy Soil-Loose ([4]; 4.9 μg/seed): 93% | % Rescue, Light Soil-Compact ([4]; 4.9 μg/seed): 100% | Count (emergence) [4, 14]: 42 a | Dwarfs (number of dwarfs not rescued) [4, 14]: 2.0 cde | Count (emergence) [4, 24]: 35 abc | Dwarfs (number of dwarfs not rescued) [4, 24]: 0.7 cde | Count (emergence) [4, 16]: 38 abc | Dwarfs (number of dwarfs not rescued) [4, 16]: 0.7 cd | Count (emergence) [4, 25]: 27 b-f | Dwarfs (number of dwarfs not rescued) [4, 25]: 0 days | Count (emergence) [4, 18]: 48.0 a | Dwarfs (number not rescued) [4, 18]: 2.3 e | Count (emergence) [4, 26]: 49.0 a | Dwarfs (number not rescued) [4, 26]: 0 e | Count (emergence) [4, 27]: 45.0 ab | Dwarfs (number not rescued) [4, 27]: 0 e | Count (emergence) [4, 21]: 38.3 abc | Dwarfs (number not rescued) [4, 21]: 0.7 cd | Count (emergence) [4, 28]: 27.3 b-f | Dwarfs (number not rescued) [4, 28]: 0 | Count (emergence) [4, 29]: 29.7 a-f | Dwarfs (number not rescued) [4, 29]: 0 | rank of potential for rescuing GA-deficient dwarf soybeans without decreasing emergence [4]: GA9>GA5>GA3-3-acetate>GA3>GA12 | best to least selectivity order ([4]; Table 22): GA9>GA5>GA3-3-acetate>GA3 | Lowest rate where biological activity is observed, 1st internode length (10 DAP) [5, 23]: 10 μg/seed | Lowest rate where biological activity is observed, emergence timing [5, 23]: 0.1 μg/seed | Lowest rate where biological activity is observed, hypocotyl length (5 DAP) [5, 23]: 0.1 μg/seed | 1st internode length (12 DAP) ([5]; L719, hilum treatment): pos | Emergence timing ([5]; L719, hilum treatment): pos | Hypocotyl length (6 DAP) ([5]; L719, hilum treatment): pos | 2nd internode length (12 DAP) ([5]; L719, hilum treatment): 0 | 3rd internode length (20 DAP) ([5]; L719, hilum treatment): 0 | Lowest rate where biological activity is observed, 1st internode length (10 DAP) (wild-type A3237 soybean; rate response): 1 μg/seed | Lowest rate where biological activity is observed, emergence timing (wild-type A3237 soybean; rate response): 0.1 μg/seed | Lowest rate where biological activity is observed, hypocotyl length (5 DAP) (wild-type A3237 soybean; rate response): 1 μg/seed | 1st internode length (12 DAP) (wild-type A3237 soybean): 0 | Emergence timing (wild-type A3237 soybean): pos | Hypocotyl length (6 DAP) (wild-type A3237 soybean): pos | activity relative to GA3, GA3-3-acetate and GA5 [6]: approximately 10 times less active | restoration of height of line 234 soybeans [6]: restore normal height to line 234 soybeans
